{"source": "patent US6683069B1", "about": "“Methods and compositions for reducing UV-induced inhibition of collagen synthesis in human skin” (Regents of the University of Michigan, priority 1998, dated 2004)", "key": {"[1]": {"test_system": "Type I procollagen mRNA", "assay": "In situ hybridization for Type I procollagen mRNA in biopsies of retinoid-pretreated, UV-exposed human skin", "type": "in vivo", "settings": "0.1% topical", "description": "(§1) We tested whether retinoids, in particular all-trans retinoic acid, would have any effect on the loss of procollagen mRNA and/or the procollagen proteins in human skin after exposure to UV radiation. (Unless otherwise noted, the retinoic acid used in the experiments described herein was all-trans.) Separate areas of skin from each of our volunteers were treated with either 0.1% retinoic acid in vehicle or with vehicle alone; the vehicle was composed of a mixture of ethanol and polyethylene glycol in a 70:30 volumetric ratio. Thereafter, these areas of skin were exposed to 2 MEDs (typically) of UV radiation and then biopsied at specific times after the exposure; the biopsies were analyzed as described previously. The site of the volunteers' skin to be exposed to UV radiation was treated prior to UV exposure with either the all-trans retinoic acid or the control vehicle. […]\n(§2) In Situ Hybridization: Digoxigenin-containing sense and antisense riboprobes to detect human type I and Type III procollagen RNA (mRNA) were synthesized with the use of T3 and T7 ribonucleic acid polymerases. […] Hybridization signals were detected immunohistochemically with the use of alkaline phosphatase-conjugated antidigoxigenin antibody."}, "[2]": {"test_system": "Type I procollagen protein", "assay": "Immunohistological staining for Type I procollagen protein in biopsies of retinoid-pretreated, UV-exposed human skin", "type": "in vivo", "settings": "0.1% topical", "description": "as §1, with “previously.” for “previously. The site of the volunteers' skin to be exposed to UV radiation was treated prior to UV exposure with either the all-trans retinoic acid or the control vehicle.”\n(§3) Immunohistology: Immunihistology of Type I and Type III pN collagens was performed as has been described by Griffiths, C. […] Type I pN collagen was detected with mouse monoclonal IgG1 antibody (SP1.D8; available from Univ. of Iowa Dept. of Biological Sciences Developmental Studies Hybridoma Bank, Iowa City, Iowa) raised against the aminopropeptide region of human Type I procollagen (Foellmer, H. G., et al., Euro. J. Biochm., 134:183-189 (1983)). Type III pN collagen was detected with affinity-purified rabbit polyclonal antibody to aminopropeptide of Type III procollagen (identical to that used for Western analysis). […]"}, "[3]": {"test_system": "Type I procollagen and pN collagen precursor protein", "assay": "Western analysis of Type I procollagen protein and pN precursor protein in retinoic acid-pretreated, UV-exposed human skin", "type": "in vivo", "settings": "0.1% topical, FIG. 12", "description": "We tested whether retinoids, in particular all-trans retinoic acid, would have any effect on the loss of procollagen mRNA and/or the procollagen proteins in human skin after exposure to UV radiation. (Unless otherwise noted, the retinoic acid used in the experiments described herein was all-trans.) Separate areas of skin from each of our volunteers were treated with either 0.1% retinoic acid in vehicle or with vehicle alone; the vehicle was composed of a mixture of ethanol and polyethylene glycol in a 70:30 volumetric ratio. Thereafter, these areas of skin were exposed to 2 MEDs (typically) of UV radiation and then biopsied at specific times after the exposure; the biopsies were analyzed as described previously. The site of the volunteers' skin to be exposed to UV radiation was treated prior to UV exposure with either the all-trans retinoic acid or the control vehicle. […] Nevertheless, it should be understood that a period of pretreatment with retinoid more than eight and less than twenty-four hours before UV exposure may likely be sufficient to prevent the reduction in collagen biosynthesis we have observed. Furthermore, it should be understood that in all of the following examples treatment with a retinoid (e.g., “retinoic acid-treated”) or the vehicle (e.g.,. “vehicle-treated”) should each be understood as pretreatment 24 hours before UV exposure. […]\n(§4) Western analysis of proteins. Type I procollagen and pN collagen precursor protein, as well as Type III procollagen were detected in skin extracts by Western analysis as described by G. J. Fisher et al. (in “Immunological identification and functional quantitation of retinoic acid and retinoid X receptor proteins in human skin,” J. Biol. Chem., 269:20629-20635 (1994)).\n(§5) Immunoreactive proteins were visualized by enhanced chemiluminescence detection and quantified by laser densitometry, or by enhanced chemifluorescence detection and quantified by a Storm imager (Molecular Dynamics, Sunnyvale, Calif.)."}, "[4]": {"test_system": "Type III procollagen mRNA", "assay": "In situ hybridization for Type III procollagen mRNA in biopsies of retinoid-pretreated, UV-exposed human skin", "type": "in vivo", "settings": "0.1% topical, pretreatment 24 h before UV; FIG. 13D", "description": "as §1, §2"}, "[5]": {"test_system": "Type III procollagen protein", "assay": "Immunohistological staining for Type III procollagen protein in biopsies of retinoid-pretreated, UV-exposed human skin", "type": "in vivo", "settings": "0.1% topical, pretreatment 24 h before 2 MEDs UV, biopsy 24 h after exposure; FIG. 14D", "description": "as §1, with “previously.” for “previously. The site of the volunteers' skin to be exposed to UV radiation was treated prior to UV exposure with either the all-trans retinoic acid or the control vehicle.”\nas §3"}, "[6]": {"test_system": "Type III procollagen protein and pN collagen precursor protein", "assay": "Western analysis of Type III procollagen protein and pN precursor protein in retinoic acid-pretreated, UV-exposed human skin", "type": "in vivo", "settings": "0.1% topical, FIG. 15", "description": "as §1, with “previously.” for “previously. The site of the volunteers' skin to be exposed to UV radiation was treated prior to UV exposure with either the all-trans retinoic acid or the control vehicle.”\nas §4, §5"}, "[7]": {"test_system": "soluble collagen", "assay": "Soluble collagen (hydroxyproline content) in retinoid-pretreated, UV-exposed human skin in vivo", "settings": "0.1% topical", "description": "We tested whether retinoids, in particular all-trans retinoic acid, would have any effect on the loss of procollagen mRNA and/or the procollagen proteins in human skin after exposure to UV radiation. (Unless otherwise noted, the retinoic acid used in the experiments described herein was all-trans.) Separate areas of skin from each of our volunteers were treated with either 0.1% retinoic acid in vehicle or with vehicle alone; the vehicle was composed of a mixture of ethanol and polyethylene glycol in a 70:30 volumetric ratio. Thereafter, these areas of skin were exposed to 2 MEDs (typically) of UV radiation and then biopsied at specific times after the exposure; the biopsies were analyzed as described previously. The site of the volunteers' skin to be exposed to UV radiation was treated prior to UV exposure with either the all-trans retinoic acid or the control vehicle. […] Nevertheless, it should be understood that a period of pretreatment with retinoid more than eight and less than twenty-four hours before UV exposure may likely be sufficient to prevent the reduction in collagen biosynthesis we have observed. Furthermore, it should be understood that in all of the following examples treatment with a retinoid (e.g., “retinoic acid-treated”) or the vehicle (e.g.,. “vehicle-treated”) should each be understood as pretreatment 24 hours before UV exposure.\nWe also assayed the biopsies from our volunteers for soluble collagen (measured as hydroxyproline content) in vehicle- and retinoid-treated skin, both before and after UV exposure. […] After UV exposure, the vehicle-treated skin (VEH+UV) had only about 40% of the soluble collagen as was present prior to exposure. The retinoid-treated area (RA+UV) still had reduced amounts of soluble collagen when compared with skin prior to UV exposure, yet the levels were almost twice what was found in the vehicle-treated/UV-exposed skin.\nAs mentioned above, the area of the volunteers' skin to be treated with a retinoid prior to UV exposure was pretreated 24 hours prior to exposure. We pretreated certain volunteer's sun-protected skin with 0.1% all trans retinoic acid 8 hours prior to exposure to 2 MEDs of UV radiation. […] Thus, as mentioned above, to prevent UV-induced loss of collagen synthesis using a retinoid, pretreatment 24 hours before exposure yields the desired prophylactic effect, whereas pretreatment 8 hours before exposure yields no significant prophylaxis.\nHydroxyproline Analysis: hydroxyproline analysis using the Amino Acid Analyzer Model 420H (Applied Biosystems, Foster City, Calif.) automates precolumn phenylthiocarbamyl-amino acid (PTC-AA) analysis. The Model 420H analyzer first hydrolyzes proteins to liberate free amino acids. Once hydrolyzed, the free amino acids are derivatized with phenylisothiocynanate (PITC) to form PTC-AA derivatives. A reverse-phase column in a temperature-controlled oven separates the PTC-AAs. Concentration of hydroxyproline in the skin extract was determined based upon a hydroxyproline standard."}, "[8]": {"settings": "pretreatment 24 h before 2 MEDs UV, biopsy 24 h after exposure"}}}
{"smiles": "CC1=C(/C=C/C(C)=C/C=C/C(C)=C/C(=O)O)C(C)(C)CCC1", "note": "[all-trans retinoic acid]", "values": [{"measurement": "Type I procollagen mRNA expression in fibroblasts vs vehicle-treated skin, prior to UV exposure", "setting": "[1]; 24 h after treatment, no UV, FIG. 10B vs 10A", "result": "essentially the same in both"}, {"measurement": "Type I procollagen mRNA expression after UV exposure", "setting": "[1]; pretreatment 24 h before UV, FIG. 10D", "result": "does not appear to evidence any loss in the mRNA signalling"}, {"measurement": "Type I procollagen protein staining vs vehicle-treated skin, prior to UV exposure", "setting": "[2]; no UV, FIG. 11B vs 11A", "result": "no appreciable difference"}, {"measurement": "Type I procollagen protein staining after UV vs before UV exposure", "setting": "[2]; pretreatment 24 h before 2 MED UV, biopsy 24 h after exposure, FIG. 11D", "result": "comparable, though slightly reduced"}, {"measurement": "Amounts of Type I procollagen and pN precursor protein vs vehicle-treated skin, unexposed", "setting": "[3]; no UV, vehicle normalized to 1.0", "result": "essentially the same amounts"}, {"measurement": "Type I procollagen protein after UV, relative to control", "setting": "[3]; [8]", "result": "greater than 80 % of the control"}, {"measurement": "pN collagen precursor protein (Type I) after UV, relative to control", "setting": "[3]; [8]", "result": "greater than 80 % of the control"}, {"measurement": "Reduction in expression of Type III procollagen mRNA after UV exposure", "setting": "[4]", "result": "little, if any, reduction"}, {"measurement": "Type III procollagen protein staining after UV vs prior to UV exposure", "setting": "[5]", "result": "almost the same pattern and intensity of staining"}, {"measurement": "Amounts of Type III procollagen protein and pN precursor protein vs vehicle-treated skin, prior to UV exposure", "setting": "[6]; no UV", "result": "essentially the same amounts"}, {"measurement": "Amounts of Type III procollagen protein and pN precursor protein after UV vs control and retinoic acid-treated areas prior to exposure", "setting": "[6]; pretreatment 24 h before 2 MEDs UV, RA+UV", "result": "essentially the same amounts"}, {"measurement": "Soluble collagen (hydroxyproline content) vs vehicle-treated skin, prior to UV exposure", "setting": "[7]; 24 h pretreatment, no UV, FIG. 16", "result": "about the same"}, {"measurement": "Soluble collagen (hydroxyproline content) vs vehicle-treated skin, without UV exposure", "setting": "[7]; after 8 hours, no UV, FIG. 17", "result": "the same"}, {"measurement": "Soluble collagen (hydroxyproline content) 24 hours after UV exposure vs vehicle-treated skin", "setting": "[7]; pretreatment 8 hours before 2 MEDs UV, FIG. 17", "result": "essentially the same"}, {"measurement": "Soluble collagen (hydroxyproline content) after UV, relative to vehicle-treated/UV-exposed skin", "setting": "[7]; pretreatment 24 h before UV, RA+UV, FIG. 16", "result": "almost twice"}, {"measurement": "Prevention of UV-induced reduction in collagen biosynthesis", "setting": "[7]; pretreatment 24 hours before UV exposure", "result": "a reduction in collagen biosynthesis was prevented"}, {"measurement": "Prevention of UV-induced reduction in collagen synthesis", "setting": "[7]; pretreatment eight hours before UV exposure", "result": "did not appear to significantly prevent reduction in collagen synthesis"}]}
